Measured values published in patent US10131702B2, “Glucagon-GLP-1-GIP triple agonist compounds” (priority 2013, dated 2018).
Where two headings read alike, the source gives them in different places. Numbered stars: 1 amine (or outer) side, 2 acyl side, 3 side chain; on linkers, the order of the positions; unused ones are H or OH. Square brackets hold non-standard residues; d marks the D form. Side chains are listed from the residue outwards. Peptide text beside a SMILES is read from it. * marks the point of attachment. γGlu = O=C(O)[C@H](CCC(=O)[*:2])N[*:1]; Stearoyl = CCCCCCCCCCCCCCCCCC(=O)*; AEEA = NCCOCCOCC(=O)O; Aib = CC(C)(N)C(=O)O

Assays:
Format in all cases: cell-based
[1] = target: T1, human GIP R (Homo sapiens, UniProt P48546); assay: cAMP induction in HEK293 cells expressing human GIP R (AlphaScreen cAMP kit)
T1 construct: expressed in transfected cells
T1 sequence (P48546 22-466): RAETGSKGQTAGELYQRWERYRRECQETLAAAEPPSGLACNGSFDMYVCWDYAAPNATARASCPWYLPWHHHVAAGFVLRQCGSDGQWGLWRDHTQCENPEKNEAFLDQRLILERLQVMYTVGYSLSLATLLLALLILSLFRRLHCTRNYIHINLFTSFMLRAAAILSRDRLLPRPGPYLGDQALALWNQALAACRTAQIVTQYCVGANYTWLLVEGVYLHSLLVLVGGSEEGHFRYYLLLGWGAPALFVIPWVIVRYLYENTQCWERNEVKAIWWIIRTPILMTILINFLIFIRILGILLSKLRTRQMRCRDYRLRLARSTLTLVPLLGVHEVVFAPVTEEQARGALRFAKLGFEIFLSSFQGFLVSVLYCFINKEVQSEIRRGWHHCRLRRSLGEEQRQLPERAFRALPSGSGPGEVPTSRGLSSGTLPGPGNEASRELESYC

[2] = target: T2, human GLP-1 R (Homo sapiens, UniProt P43220); assay: cAMP induction in HEK293 cells expressing human GLP-1 R (AlphaScreen cAMP kit); conditions: average EC50, cAMP, HEK293 cells expressing human GLP-1 R, read-out: GLP1 R (EC50 in nM)
T2 construct: expressed in transfected cells
T2 sequence (P43220 24-463): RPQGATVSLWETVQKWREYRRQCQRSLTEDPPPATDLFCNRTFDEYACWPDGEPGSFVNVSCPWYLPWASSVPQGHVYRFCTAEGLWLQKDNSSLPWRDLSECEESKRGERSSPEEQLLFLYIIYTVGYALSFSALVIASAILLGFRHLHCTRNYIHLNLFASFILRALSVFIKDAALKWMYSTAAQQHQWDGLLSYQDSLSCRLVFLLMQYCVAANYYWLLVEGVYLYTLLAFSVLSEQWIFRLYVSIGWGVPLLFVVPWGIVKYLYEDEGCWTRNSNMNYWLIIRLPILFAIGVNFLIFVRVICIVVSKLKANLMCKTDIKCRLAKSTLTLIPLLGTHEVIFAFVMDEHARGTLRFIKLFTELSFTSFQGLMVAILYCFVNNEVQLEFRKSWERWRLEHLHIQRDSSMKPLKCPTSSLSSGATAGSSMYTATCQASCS

[3] = target: T3, human GCG R (Homo sapiens, UniProt P47871); assay: cAMP induction in HEK293 cells expressing human GCG R (AlphaScreen cAMP kit)
T3 construct: expressed in transfected cells
T3 sequence (P47871 26-477): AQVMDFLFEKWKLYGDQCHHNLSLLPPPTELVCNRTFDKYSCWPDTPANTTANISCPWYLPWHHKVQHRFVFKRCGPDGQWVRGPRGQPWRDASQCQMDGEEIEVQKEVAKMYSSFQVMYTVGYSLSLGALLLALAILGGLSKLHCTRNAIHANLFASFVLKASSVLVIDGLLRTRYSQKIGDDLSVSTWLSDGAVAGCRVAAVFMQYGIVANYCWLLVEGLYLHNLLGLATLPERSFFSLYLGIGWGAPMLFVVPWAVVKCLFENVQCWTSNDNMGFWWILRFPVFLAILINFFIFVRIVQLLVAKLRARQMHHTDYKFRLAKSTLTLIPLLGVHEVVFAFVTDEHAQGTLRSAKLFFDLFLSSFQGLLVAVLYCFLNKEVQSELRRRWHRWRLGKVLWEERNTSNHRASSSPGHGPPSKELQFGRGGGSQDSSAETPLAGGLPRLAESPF

[4] = Table 2b (most comprehensive data), average EC50, cAMP, read-out: GIP R (EC50 in nM)
[5] = Table 2b (most comprehensive data)
[6] = GIP R (EC50 in nM), Table 2, average EC50, cAMP
[7] = GIP R (EC50 in nM), Table 2b (most comprehensive data), average EC50, cAMP

CCCCCCCCCCCCCCCC(=O)N[C@@H](CCC(=O)NCCCC[C@H](NC(=O)[C@H](CO)NC(=O)[C@H](CC(=O)O)NC(=O)[C@H](CC(C)C)NC(=O)[C@H](Cc1ccc(O)cc1)NC(=O)[C@@H](NC(=O)[C@H](CO)NC(=O)[C@H](Cc1ccc(O)cc1)NC(=O)[C@H](CC(=O)O)NC(=O)[C@H](CO)NC(=O)[C@@H](NC(=O)[C@H](Cc1ccccc1)NC(=O)[C@@H](NC(=O)CNC(=O)[C@H](CCC(N)=O)NC(=O)C(C)(C)NC(=O)[C@@H](N)Cc1ccc(O)cc1)[C@@H](C)O)[C@@H](C)O)[C@@H](C)CC)C(=O)N[C@@H](C)C(=O)N[C@@H](C)C(=O)N[C@@H](Cc1c[nH]cn1)C(=O)N[C@@H](CC(=O)O)C(=O)N[C@@H](Cc1ccccc1)C(=O)N[C@H](C(=O)N[C@@H](CCC(=O)O)C(=O)N[C@@H](Cc1c[nH]c2ccccc12)C(=O)N[C@@H](CC(C)C)C(=O)N[C@@H](CC(C)C)C(=O)N[C@@H](CCCNC(=N)N)C(=O)N[C@@H](C)C(N)=O)C(C)C)C(=O)O [Compound 27] (HELM PEPTIDE1{Y.[Aib].Q.G.T.F.T.S.D.Y.S.I.Y.L.D.S.K.A.A.H.D.F.V.E.W.L.L.R.A.[am]}|PEPTIDE2{[CCCCCCCCCCCCCCCC(=O)[*:2]].[gGlu]}$PEPTIDE1,PEPTIDE2,17:R3-2:R2$$$V2.0)
EC50 ([1]; Table 2, average EC50, cAMP, read-out: GIP R (EC50 in nM)): 0.12 nM
EC50 [1, 4]: 0.16 nM
EC50 ([2]; Table 2): 0.16 nM
EC50 [2, 5]: 0.07 nM
EC50 ([3]; Table 2, average EC50, cAMP, HEK293 cells expressing human GCG R, read-out: GCG R (EC50 in nM)): 0.07 nM

CC[C@H](C)[C@H](NC(=O)[C@H](CO)NC(=O)[C@H](Cc1ccc(O)cc1)NC(=O)[C@H](CC(=O)O)NC(=O)[C@H](CO)NC(=O)[C@@H](NC(=O)[C@H](Cc1ccccc1)NC(=O)[C@@H](NC(=O)CNC(=O)[C@H](CCC(N)=O)NC(=O)C(C)(C)NC(=O)[C@@H](N)Cc1ccc(O)cc1)[C@@H](C)O)[C@@H](C)O)C(=O)N[C@@H](Cc1ccc(O)cc1)C(=O)N[C@@H](CC(C)C)C(=O)N[C@@H](CC(=O)O)C(=O)N[C@@H](CCCCN)C(=O)N[C@@H](CCCCN)C(=O)N[C@@H](C)C(=O)N[C@@H](C)C(=O)N[C@@H](Cc1c[nH]cn1)C(=O)N[C@@H](CC(=O)O)C(=O)N[C@@H](Cc1ccccc1)C(=O)N[C@H](C(=O)N[C@@H](CCC(=O)O)C(=O)N[C@@H](Cc1c[nH]c2ccccc12)C(=O)N[C@@H](CC(C)C)C(=O)N[C@@H](CC(C)C)C(=O)N[C@@H](CO)C(=O)N[C@@H](C)C(N)=O)C(C)C [Compound 19] (HELM PEPTIDE1{Y.[Aib].Q.G.T.F.T.S.D.Y.S.I.Y.L.D.K.K.A.A.H.D.F.V.E.W.L.L.S.A.[am]}$$$$V2.0)
EC50 [1, 6]: 0.032 nM
EC50 [1, 7]: 0.013 nM
EC50 ([2]; Table 2): 0.013 nM
EC50 [2, 5]: 0.024 nM
EC50 [3]: 0.024 nM

CC(C)C[C@H](NC(=O)[C@H](C)NC(=O)[C@H](CCCCN)NC(=O)[C@H](CO)NC(=O)[C@H](Cc1ccc(O)cc1)NC(=O)[C@H](CC(=O)O)NC(=O)[C@H](CO)NC(=O)[C@@H](NC(=O)[C@H](Cc1ccccc1)NC(=O)[C@@H](NC(=O)CNC(=O)[C@H](CCC(N)=O)NC(=O)C(C)(C)NC(=O)[C@@H](N)Cc1ccc(O)cc1)[C@@H](C)O)[C@@H](C)O)C(=O)N[C@@H](CC(=O)O)C(=O)N[C@@H](CCC(=O)O)C(=O)N[C@@H](CCCCN)C(=O)N[C@@H](C)C(=O)N[C@@H](C)C(=O)N[C@@H](CCCCN)C(=O)N[C@@H](CCC(=O)O)C(=O)N[C@@H](Cc1ccccc1)C(=O)N[C@H](C(=O)N[C@@H](CCC(=O)O)C(=O)N[C@@H](Cc1c[nH]c2ccccc12)C(=O)N[C@@H](CC(C)C)C(=O)N[C@@H](CC(C)C)C(=O)N[C@@H](CO)C(=O)N[C@@H](C)C(N)=O)C(C)C [Compound 21] (HELM PEPTIDE1{Y.[Aib].Q.G.T.F.T.S.D.Y.S.K.A.L.D.E.K.A.A.K.E.F.V.E.W.L.L.S.A.[am]}$$$$V2.0)
EC50 [1, 6]: 0.18 nM
EC50 [1, 7]: 0.015 nM
EC50 ([2]; Table 2): 0.014 nM
EC50 [2, 5]: 0.1 nM
EC50 [3]: 0.1 nM

CC(C)C[C@H](NC(=O)[C@H](CC(C)C)NC(=O)[C@H](Cc1c[nH]c2ccccc12)NC(=O)[C@H](CCC(=O)O)NC(=O)[C@@H](NC(=O)[C@H](Cc1ccccc1)NC(=O)[C@H](CC(=O)O)NC(=O)[C@H](CCCNC(=N)N)NC(=O)[C@H](C)NC(=O)[C@H](C)NC(=O)[C@H](CCCCN)NC(=O)[C@H](CO)NC(=O)[C@H](CC(=O)O)NC(=O)[C@H](CC(C)C)NC(=O)[C@H](Cc1ccc(O)cc1)NC(=O)[C@H](CCCCN)NC(=O)[C@H](CO)NC(=O)[C@H](Cc1ccc(O)cc1)NC(=O)[C@H](CC(=O)O)NC(=O)[C@H](CO)NC(=O)[C@@H](NC(=O)[C@H](Cc1ccccc1)NC(=O)[C@@H](NC(=O)CNC(=O)[C@H](CCC(N)=O)NC(=O)C(C)(C)NC(=O)[C@@H](N)Cc1ccc(O)cc1)[C@@H](C)O)[C@@H](C)O)C(C)C)C(=O)N[C@@H](CO)C(=O)N[C@@H](C)C(N)=O [Compound 6] (HELM PEPTIDE1{Y.[Aib].Q.G.T.F.T.S.D.Y.S.K.Y.L.D.S.K.A.A.R.D.F.V.E.W.L.L.S.A.[am]}$$$$V2.0)
EC50 [1, 6]: 0.34 nM
EC50 [1, 7]: 0.01 nM
EC50 ([2]; Table 2): 0.0095 nM
EC50 [3]: 0.018 nM

CCCCCCCCCCCCCCCC(=O)N[C@@H](CCC(=O)NCCCC[C@H](NC(=O)[C@H](CCC(=O)O)NC(=O)[C@H](CC(C)C)NC(=O)[C@H](Cc1ccc(O)cc1)NC(=O)[C@@H](NC(=O)[C@H](CO)NC(=O)[C@H](Cc1ccc(O)cc1)NC(=O)[C@H](CC(=O)O)NC(=O)[C@H](CO)NC(=O)[C@@H](NC(=O)[C@H](Cc1ccccc1)NC(=O)[C@@H](NC(=O)CNC(=O)[C@H](CCC(N)=O)NC(=O)C(C)(C)NC(=O)[C@@H](N)Cc1ccc(O)cc1)[C@@H](C)O)[C@@H](C)O)[C@@H](C)CC)C(=O)N[C@@H](CCCCN)C(=O)N[C@@H](C)C(=O)N[C@@H](C)C(=O)N[C@@H](CCCCN)C(=O)N[C@@H](CCC(=O)O)C(=O)N[C@@H](Cc1ccccc1)C(=O)N[C@H](C(=O)N[C@@H](CCC(=O)O)C(=O)N[C@@H](Cc1c[nH]c2ccccc12)C(=O)N[C@@H](CC(C)C)C(=O)N[C@@H](CC(C)C)C(=O)N[C@@H](CO)C(=O)N[C@@H](C)C(N)=O)C(C)C)C(=O)O [Compound 24] (HELM PEPTIDE1{Y.[Aib].Q.G.T.F.T.S.D.Y.S.I.Y.L.E.K.K.A.A.K.E.F.V.E.W.L.L.S.A.[am]}|PEPTIDE2{[CCCCCCCCCCCCCCCC(=O)[*:2]].[gGlu]}$PEPTIDE1,PEPTIDE2,16:R3-2:R2$$$V2.0)
EC50 [1, 6]: 0.1 nM
EC50 [1, 7]: 0.1 nM
EC50 ([2]; Table 2): 0.091 nM
EC50 [2, 5]: 0.091 nM
EC50 [3]: 0.28 nM

CCCCCCCCCCCCCCCCCC(=O)N[C@@H](CCC(=O)NCCOCCOCC(=O)NCCOCCOCC(=O)NCCCC[C@H](NC(=O)[C@H](CCCCN)NC(=O)[C@H](CCC(=O)O)NC(=O)[C@H](CC(C)C)NC(=O)[C@H](Cc1ccc(O)cc1)NC(=O)[C@@H](NC(=O)[C@H](CO)NC(=O)[C@H](Cc1ccc(O)cc1)NC(=O)[C@H](CC(=O)O)NC(=O)[C@H](CO)NC(=O)[C@@H](NC(=O)[C@H](Cc1ccccc1)NC(=O)[C@@H](NC(=O)CNC(=O)[C@H](CCC(N)=O)NC(=O)C(C)(C)NC(=O)[C@@H](N)Cc1ccc(O)cc1)[C@@H](C)O)[C@@H](C)O)[C@@H](C)CC)C(=O)N[C@@H](C)C(=O)N[C@@H](C)C(=O)N[C@@H](CCCCN)C(=O)N[C@@H](CCC(=O)O)C(=O)N[C@@H](Cc1ccccc1)C(=O)N[C@H](C(=O)N[C@@H](CCC(=O)O)C(=O)N[C@@H](Cc1c[nH]c2ccccc12)C(=O)N[C@@H](CC(C)C)C(=O)N[C@@H](CC(C)C)C(=O)N[C@@H](CO)C(=O)N[C@@H](C)C(=O)NCC(=O)N1CCC[C@H]1C(=O)N[C@@H](CO)C(=O)N[C@@H](CO)C(=O)NCC(=O)N[C@@H](C)C(=O)N1CCC[C@H]1C(=O)N1CCC[C@H]1C(=O)N1CCC[C@H]1C(=O)N[C@@H](CO)C(N)=O)C(C)C)C(=O)O [Compound 37] (H-Y[Aib]QGTFTSDYSIYLEKK([AEEA-AEEA-γGlu-Stearoyl])AAKEFVEWLLSAGPSSGAPPPS-NH2)
EC50 [1, 4]: 0.018 nM
EC50 ([3]; Table 2b (most comprehensive data), average EC50, cAMP, HEK293 cells expressing human GCG R, read-out: GCG R (EC50 in nM)): 0.014 nM

CC[C@H](C)[C@H](NC(=O)[C@H](CO)NC(=O)[C@H](Cc1ccc(O)cc1)NC(=O)[C@H](CC(=O)O)NC(=O)[C@H](CO)NC(=O)[C@@H](NC(=O)[C@H](Cc1ccccc1)NC(=O)[C@@H](NC(=O)CNC(=O)[C@H](CCC(N)=O)NC(=O)C(C)(C)NC(=O)[C@@H](N)Cc1ccc(O)cc1)[C@@H](C)O)[C@@H](C)O)C(=O)N[C@@H](Cc1ccc(O)cc1)C(=O)N[C@@H](CC(C)C)C(=O)N[C@@H](CC(=O)O)C(=O)N[C@@H](CO)C(=O)N[C@@H](CCCCN)C(=O)N[C@@H](C)C(=O)N[C@@H](C)C(=O)N[C@@H](Cc1c[nH]cn1)C(=O)N[C@@H](CC(=O)O)C(=O)N[C@@H](Cc1ccccc1)C(=O)N[C@H](C(=O)N[C@@H](CC(N)=O)C(=O)N[C@@H](Cc1c[nH]c2ccccc12)C(=O)N[C@@H](CC(C)C)C(=O)N[C@@H](CC(C)C)C(=O)N[C@@H](CO)C(=O)N[C@@H](C)C(N)=O)C(C)C [Compound 11] (HELM PEPTIDE1{Y.[Aib].Q.G.T.F.T.S.D.Y.S.I.Y.L.D.S.K.A.A.H.D.F.V.N.W.L.L.S.A.[am]}$$$$V2.0)
EC50 [1, 6]: 0.28 nM
EC50 ([2]; Table 2): 0.02 nM
EC50 [2, 5]: 0.11 nM
EC50 [3]: 0.11 nM
